The values that follow come from patent US9994862B2, “Rice resistant to HPPD and ACCase inhibiting herbicides” (priority 2011, dated 2018).

Format in all cases: in vivo, rice
The subject of one assay is line ML0831265-01493. Kind of assay: Mesotrione tolerance trials / herbicide bioassay. The text has this: The mutant line is planted in rows or alternatively whole plots are planted and rows of the unmutated line (P1003) and other types of rice or whole plots are planted. Mesotrione is applied pre-emergence or alternatively it is applied post-emergence at the three to four leaf stage of the rice plants. Various rates of mesotrione are applied pre-emergence, pre-emergence followed by post-emergent, or post-emergent with a single or sequential application. Post-emergent applications are applied at the 3-4 leaf stage of the rice.
With low rates (105 gm ai/ha) of mesotrione applied both the mutant line as well as the original unmutated line survive. However, other types of rice, such as the mutant line with ACCase tolerance ML0831265-01493 and the associated unmutated line R0146 are killed at these rates of mesotrione. […] The higher tolerance to mesotrione makes the line ML0831266-03093 of commercial value as both the tolerance can be controlled or bred into new varieties and it is of a high enough level to allow commercial weed control in rice with the application of mesotrione herbicide and possibly other HPPD inhibiting herbicides (FIG. 19A initial results, FIG. 19B new results after 1 year, and FIG. 22—trial results on various rice lines).

Assay [1] relates to F2 individuals derived from a cross of ML0831266-03093 and ML0831265-01493. The assay is described as follows: Mesotrione herbicide bioassays on segregating F2 population. Here is the method: The mesotrione tolerant line ML0831266-03093 is tolerant to rates of 420 gm ai/ha and even a dual application of mesotrione first at a rate of 105 gm ai/ha followed three weeks later by an application of 630 gm ai/ha. […] The cross is made and the resulting F1 seeds are harvested, planted, and allowed to self to produce a F2 population. The F2 population is grown and tissue is collected from individual plants. Each F2 plant and parental lines are tested with a set of 192 SNP markers identified as being polymorphic between the two mutant lines ML0831266-03093 and ML0831265-01493. The set of polymorphic markers was identified as evenly spaced across the rice genome after testing both parental lines with a set of 796 SNP markers. All 192 markers including two found with linkage to target traits were selected from the 44 k SNP set described by Zhao et al. 2011.
Seedlings of size 3 to 4 leaves are sprayed with mesotrione herbicide. In one set of 89 plants mesotrione is first applied at 105 gm ai/ha killing 23 plants. Both the mutant line control ML0831266-03093 and the unmutated line P1003 survived the herbicide application while the unmutated line R0146 was killed. The surviving plants including some additional plants making a total of 95 are then sprayed with another treatment of mesotrione at a rate of 630 gm ai/ha killing or injuring 67 while 28 survived. (FIG. 23) The surviving ratio of plants to those killed or injured fits a one quarter ratio with a chi squared value of 1.03, well within the expected for a single recessive gene. Another set of F2 individuals of size 78 individuals are sprayed with a single application of mesotrione herbicide at a rate of 420 gm ai/ha resulting in 26 plants surviving also fitting in the expected one quarter ratio for a single recessive gene with a chi square value of 2.88 (Table 2).

A further assay deals with line PL1214418M2-73001. Kind of assay: Mesotrione trait tolerance trial. As to conditions: 0.5x to 4x of 210 gmai/ha at 4 leaf stage, evaluated 4 weeks after application. The source says:
During the breeding process to develop new lines (PL1214418M2-80048 and PL1214418M2-73009) with resistance/tolerance to HPPD and ACCase herbicides, two other lines were also investigated to determine the contribution of the HPPD tolerance mutation and the HPPD tolerance native gene. The line PL1214418M2-73001 carries ACCase tolerance and only the HPPD tolerance, whereas […] PL1214418M2-73013 carries ACCase tolerance and only the HPPD native tolerance gene. These selections allow the estimation of the tolerance effect of each of the two genes required for tolerance to HPPD herbicides. The tolerance effect of each gene was measured by growing the lines in single rows including the newly developed line PL1214418M2-73009 that carries both the HPPD tolerance from the mutation and the non-induced tolerance, the HPPD tolerant line ML0831266-0309, and the non-induced parent line P1003. The field plots were sprayed at the 4 leaf stage with the HPPD herbicide mesotrione at 0.5×, 1×, 2×, and 4× multiples of the labeled application rate of 210 gmai/ha.
The plots were evaluated 4 weeks after the herbicide was applied. […] The two genes also appear to function in an additive manner as only by combining the two in the new line PL1214418M2-73009 does the tolerance level become equivalent to the original mutant line ML0831266-0309.

[2] abbreviates: one application at 105 gai/ha followed by second application of 630 gai/ha.
Where [3] appears, read: single application of mesotrione at 105 gai/ha.
The mark [4] stands for this setting: single application of mesotrione at 420 gai/ha.

SMILES strings stand for the structures. Entries after “also recorded” stand apart in the source; their conditions may differ.

For the molecule `CS(=O)(=O)c1ccc(C(=O)C2C(=O)CCCC2=O)c([N+](=O)[O-])c1` [mesotrione], the sensitivity to mesotrione entry with line ML0831265-01493 (in vivo) was “highly susceptible; also recorded: highly sensitive”. Moreover, the survival after mesotrione result in the assay with line ML0831265-01493 (low rate 105 gm ai/ha) is recorded as “killed”. For the same molecule, the figures for the “number of susceptible plants, observed” value in assay [1] (setting [2]), in assay [1] (setting [3]) and in assay [1] (setting [4]) were 67 plants, 23 plants and 52 plants, respectively. Besides, the entries for the “number of tolerant plants, observed” value in assay [1] (setting [2]), in assay [1] (setting [3]) and in assay [1] (setting [4]) were 28 plants, 64 plants and 26 plants, respectively. Moreover, the “tolerance to mesotrione compared with P1003 and ML0831266-0309” value in the assay on line PL1214418M2-73001 is reported as “intermediate tolerance”.
